Tests used:
[1] = target: T1, DPP-VIII (Homo sapiens, UniProt Q6V1X1); test: DPP-VIII IC50 assay (Ala-Pro AMC), selectivity versus DPP-IV; format: biochemical; settings: IC50 of DPP-VIII divided by IC50 for DPP-IV
T1 construct: The full length cDNAs for human DPP-VII, DPP-VIII, DPP-IX, and FAP were obtained from Open Biosystems; 6xHis (C); made in house
From the text: (§1) The term “selectivity ratio” refers to the IC50 value generated in a biochemical assay measuring inhibition of DPP-IV compared to the IC50 value generated in a biochemical assay measuring inhibition of another DPP family member (e.g. DPP-VII, DPP-VIII, DPP-IX or FAP) whereby the ratio is obtained by dividing the IC50 value of DPP-VII, DPP-VIII, DPP-IX or FAP by the IC50 value for DPP-IV.
(§2) Materials. S9 insect cells and Sf-900 II SFM media were from Invitrogen. Anti-FLAG M2 immunoaffinity gel was from Sigma. Gly-Pro-AMC, Lys-Pro AMC, and Ala-Pro AMC were from Enzyme Systems. IC50 calculations were performed by non-linear regression analysis using Prism software (GraphPad). Preparation of DPP-VII, DPP-VIII, DPP-IX, and FAP baculovirus constructs. The full length cDNAs for human DPP-VII, DPP-VIII, DPP-IX, and FAP were obtained from Open Biosystems. […] Baculovirus was prepared using the Bac-to-Bac Baculovirus Expression System (Invitrogen). The cDNAs in the final baculovirus constructs were sequence verified. Baculovirus expression. […] Infection with DPP-VII, DPP-VIII, DPP-IX, and FAP baculoviral constructs were all performed at an MOI of 4. The infected cells were grown for 48 hours and the cell pellets harvested and frozen until purification. DPP-VII was purified using anti-FLAG immunoaffinity gel according to the manufacturer's instructions. DPP-VIII, DPP-IX, and FAP were purified using a B-PER 6xHis Fusion Protein Column Purification Kit from Pierce. IC50 assay. Recombinant DPPs were diluted in reaction buffer to give fluorescence values of 5000-20000 counts in the “enzyme only wells” 20 min after addition of substrate at 27° C. Reaction buffers were 25 mM (2-(4-Morpholino)-Ethane Sulfonic Acid), pH 5.5 for DPP-VII, 25 mM Tris, pH 8, 1% Triton X-100, 100 mM NaCl for DPP-VIII, and 25 mM Tris pH 8 for DPP-1× and FAP. Test wells in a 96-well microtiter plate contained 88 μL of diluted DPP and 2.5 ul of titrated compound in 50 mM glycine, pH 2.6. “Enzyme only” wells contained 88 uL of diluted DPP and 2.5 ul of glycine buffer. “No enzyme” wells contained 88 uL of reaction buffer without DPP and 2.5 ul of glycine buffer. All assays were done in triplicate. The plate was incubated at 27° C. for 10 min and then cooled on ice for 10 min. Ten microliters of substrate diluted in reaction buffer (40 uM final concentration) without Triton or NaCl were then added to all wells followed by incubation at 27C for 20 min. Substrates were Lys-Pro AMC for DPP-VII, and Ala-Pro AMC for DPP-VIII, DPP-IX, and FAP. Fluorescence in each well was measured at settings of 380/460 nm.

[2] = target: T2, FAP (Homo sapiens, UniProt Q12884); test: FAP IC50 assay (Ala-Pro AMC), selectivity versus DPP-IV; format: biochemical; settings: IC50 of FAP divided by IC50 for DPP-IV
T2 construct: The full length cDNAs for human DPP-VII, DPP-VIII, DPP-IX, and FAP were obtained from Open Biosystems; 6xHis (N); made in house
T2 sequence (Q12884 1-760): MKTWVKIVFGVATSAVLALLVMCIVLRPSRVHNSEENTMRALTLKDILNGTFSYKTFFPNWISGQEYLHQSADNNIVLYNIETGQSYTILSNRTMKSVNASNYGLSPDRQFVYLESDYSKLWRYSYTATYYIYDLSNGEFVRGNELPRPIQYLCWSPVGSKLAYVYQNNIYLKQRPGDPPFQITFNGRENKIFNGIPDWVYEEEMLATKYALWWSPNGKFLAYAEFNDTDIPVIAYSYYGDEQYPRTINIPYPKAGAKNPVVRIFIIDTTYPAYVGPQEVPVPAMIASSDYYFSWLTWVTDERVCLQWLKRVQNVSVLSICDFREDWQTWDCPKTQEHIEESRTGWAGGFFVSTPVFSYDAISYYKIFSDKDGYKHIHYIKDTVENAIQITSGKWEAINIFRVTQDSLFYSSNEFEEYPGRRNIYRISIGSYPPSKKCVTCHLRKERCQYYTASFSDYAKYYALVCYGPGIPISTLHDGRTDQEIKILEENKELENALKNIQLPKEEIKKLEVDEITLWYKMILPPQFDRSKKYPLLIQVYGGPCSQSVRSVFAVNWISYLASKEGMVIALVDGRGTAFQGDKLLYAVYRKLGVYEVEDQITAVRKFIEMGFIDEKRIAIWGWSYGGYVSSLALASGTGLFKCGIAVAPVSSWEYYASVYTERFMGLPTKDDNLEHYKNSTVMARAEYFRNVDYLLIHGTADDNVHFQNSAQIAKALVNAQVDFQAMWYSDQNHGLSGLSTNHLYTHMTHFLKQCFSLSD
From the text: as §1, §2

[3] = target: T3, DPP-VII (Homo sapiens, UniProt Q9UHL4); test: DPP-VII IC50 assay (Lys-Pro AMC), selectivity versus DPP-IV; format: biochemical; settings: IC50 of DPP-VII divided by IC50 for DPP-IV
T3 construct: The full length cDNAs for human DPP-VII, DPP-VIII, DPP-IX, and FAP were obtained from Open Biosystems; FLAG (N); made in house
From the text: as §1, §2

[4] = test system: Zucker Obese Fatty rats; test: Toxicity in rats, oral dosing; format: in vivo, rat; settings: 1 mg/kg, 4-24 hrs post-dose, all Zucker Obese Fatty rats tested
From the text: Toxicity in Rats: The Zucker Diabetic Fatty (ZDF) rat model can be used to investigate the effects of the compounds of the invention on both the treatment and prevention of diabetes as rats of this sub-strain are initially pre-diabetic although they develop severe type 2 diabetes characterized by increased HbAl c levels over a period of 6 weeks. The same strain can be used to predict the clinical efficacy of other anti-diabetic drug types. For example, the model predicts the potency and limited clinical efficacy of thiazolidinedione insulin sensitizer compounds. The experimental protocol requires p.o. (oral gavage) administration of either vehicle or test article at indicated doses either QD or BID using a gastric feeding needle with a ball tip, without anesthesia, using hand restraint to adult rats which have been fasted overnight. Animals are monitored for clinical signs at 1, 2, 4 and 8 hour time intervals following the treatment regimen. Whole blood samples (to a maximum level of 10% of the total blood volume every 2 weeks) were collected from the animals from the retro-orbital sinus in accordance with the guidelines of the IACUC committee.
The expected therapeutic dose level could not be reached for the comparative compounds before acute toxicity was observed.

T1 sequence (Q6V1X1 whole entry): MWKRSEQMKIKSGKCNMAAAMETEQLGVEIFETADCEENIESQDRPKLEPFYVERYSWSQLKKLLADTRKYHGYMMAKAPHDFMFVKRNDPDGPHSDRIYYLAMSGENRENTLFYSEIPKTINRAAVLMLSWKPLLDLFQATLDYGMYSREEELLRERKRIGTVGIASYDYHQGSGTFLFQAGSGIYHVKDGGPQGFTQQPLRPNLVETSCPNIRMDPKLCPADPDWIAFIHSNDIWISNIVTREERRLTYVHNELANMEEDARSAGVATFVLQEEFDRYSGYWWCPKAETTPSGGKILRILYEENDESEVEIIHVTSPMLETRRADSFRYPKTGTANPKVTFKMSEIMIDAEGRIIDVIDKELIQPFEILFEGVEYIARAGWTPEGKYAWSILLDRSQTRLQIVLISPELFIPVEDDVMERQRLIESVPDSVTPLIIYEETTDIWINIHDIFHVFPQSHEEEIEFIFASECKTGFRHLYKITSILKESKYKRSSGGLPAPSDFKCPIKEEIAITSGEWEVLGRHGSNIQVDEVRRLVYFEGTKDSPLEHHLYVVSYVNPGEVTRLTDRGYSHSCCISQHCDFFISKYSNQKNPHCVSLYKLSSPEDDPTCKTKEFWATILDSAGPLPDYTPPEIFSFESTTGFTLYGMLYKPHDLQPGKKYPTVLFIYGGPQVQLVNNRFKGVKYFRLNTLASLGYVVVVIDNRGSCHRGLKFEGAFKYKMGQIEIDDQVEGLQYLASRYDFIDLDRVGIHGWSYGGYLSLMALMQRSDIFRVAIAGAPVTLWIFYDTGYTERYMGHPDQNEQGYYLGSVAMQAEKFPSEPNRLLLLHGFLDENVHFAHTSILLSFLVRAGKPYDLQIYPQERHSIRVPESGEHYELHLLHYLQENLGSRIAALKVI

SMILES	Selectivity Ratios DPP-VIII [1]	Selectivity Ratios FAP [2]	Selectivity Ratios DPP-VII [3]	acute toxicity in rats [4]
N[C@@H]1CCN(S(=O)(=O)c2ccccc2F)C[C@H]1C(=O)N1CCC[C@H]1B(O)O [Compound 10, (2R)-1-[(3R,4R)-4-amino-1-(2-fluoro-benzenesulfonyl)-piperidine-3-carbonyl]-boroPro-OH]	C (10 < C ≦ 50)	D (50 < D ≦ 100)	E (E > 100)	
O=C(CNC1CCNCC1)N1CCC[C@H]1B(O)O [Compound 20, reference compound]	B (1 < B ≦ 10)	E (E > 100)	A (A ≦ 1)	
Cl.O=C(CN[C@@H]1CCCNC1)N1CCC[C@H]1B(O)O [Compound 21, reference compound]	B (1 < B ≦ 10)	C (10 < C ≦ 50)	A (A ≦ 1)	
N[C@@H]1CN(S(=O)(=O)c2cccc3ccccc23)CC[C@H]1C(=O)N1CCC[C@H]1B(O)O [Compound 14, (2R)-1-[(3R,4R)-4-amino-1-(naphthalene-1-sulfonyl)-piperidine-3-carbonyl]-boroPro-OH]	C (10 < C ≦ 50)	C (10 < C ≦ 50)	C (10 < C ≦ 50)	
N[C@@H]1CCN(S(=O)(=O)c2ccc(F)cc2F)C[C@H]1C(=O)N1CCC[C@H]1B(O)O [Compound 11, (2R)-1-[(3R,4R)-4-amino-1-(2,4-difluoro-benzenesulfonyl)-piperidine-3-carbonyl]-boroPro-OH]	D (50 < D ≦ 100)	E (E > 100)	E (E > 100)	
N[C@@H]1CCN(S(=O)(=O)c2ccc(-c3ccccc3)cc2)C[C@H]1C(=O)N1CCC[C@H]1B(O)O [Compound 16, (2R)-1-[(3R,4R)-4-amino-1-(biphenyl-4-sulfonyl)-piperidine-3-carbonyl]-boroPro-OH]	E (E > 100)	C (10 < C ≦ 50)	E (E > 100)	
N[C@@H]1CCN(S(=O)(=O)c2cccc(F)c2)C[C@H]1C(=O)N1CCC[C@H]1B(O)O [Compound 9, (2R)-1-[(3R,4R)-4-amino-1-(3-fluoro-benzenesulfonyl)-piperidine-3-carbonyl]-boroPro-OH]	D (50 < D ≦ 100)	D (50 < D ≦ 100)	E (E > 100)	
CS(=O)(=O)N1CC[C@@H](N)[C@H](C(=O)N2CCC[C@H]2B(O)O)C1 [Compound 7, (2R)-1-[(3R,4R)-4-amino-1-methanesulfonyl-piperidine-3-carbonyl]-boroPro-OH]	C (10 < C ≦ 50)	E (E > 100)	E (E > 100)	
N[C@@H]1CCN(S(=O)(=O)c2cc(F)c(F)cc2F)C[C@H]1C(=O)N1CCC[C@H]1B(O)O [Compound 12, (2R)-1-[(3R,4R)-4-amino-1-(2,4,5-trifluoro-benzenesulfonyl)-piperidine-3-carbonyl]-boroPro-OH]	C (10 < C ≦ 50)	C (10 < C ≦ 50)	C (10 < C ≦ 50)	
CS(=O)(=O)c1ccc(S(=O)(=O)N2CC[C@@H](N)[C@H](C(=O)N3CCC[C@H]3B(O)O)C2)cc1 [Compound 13, (2R)-1-[(3R,4R)-4-amino-1-(4-methanesulfonyl-benzenesulfonyl)-piperidine-3-carbonyl]-boroPro-OH]	D (50 < D ≦ 100)	E (E > 100)	E (E > 100)	
N[C@@H]1CCN(S(=O)(=O)c2ccccc2)C[C@H]1C(=O)N1CCC[C@H]1B(O)O [Compound 6, (2R)-1-[(3R,4R)-4-amino-1-Benzenesulfonyl-piperidine-3-carbonyl]-boroPro-OH]	D (50 < D ≦ 100)	E (E > 100)	E (E > 100)	
CC(C)[C@H](N)C(=O)N1CCC[C@H]1B(O)O [PT100]				acute toxicity (death)
N[C@@H]1CCN(S(=O)(=O)c2ccc(F)cc2)C[C@H]1C(=O)N1CCC[C@H]1B(O)O [Compound 8, (2R)-1-[(3R,4R)-4-amino-1-(4-fluoro-benzenesulfonyl)-piperidine-3-carbonyl]-boroPro-OH]	D (50 < D ≦ 100)	D (50 < D ≦ 100)	E (E > 100)	
CC(C)S(=O)(=O)N1CC[C@@H](N)[C@H](C(=O)N2CCC[C@H]2B(O)O)C1 [Compound 18, (2R)-1-[(3R,4R)-4-amino-1-(propane-2-sulfonyl)-piperidine-3-carbonyl]-boroPro-OH]	C (10 < C ≦ 50)	D (50 < D ≦ 100)	C (10 < C ≦ 50)	
N[C@@H]1CCN(S(=O)(=O)c2cccc(-c3ccccc3)c2)C[C@H]1C(=O)N1CCC[C@H]1B(O)O [Compound 17, (2R)-1-[(3R,4R)-4-amino-1-(biphenyl-3-sulfonyl)-piperidine-3-carbonyl]-boroPro-OH]	E (E > 100)	C (10 < C ≦ 50)	C (10 < C ≦ 50)	
